For data set [1] the following is noted: 100 kPa, Liquid, Falling or rolling sphere viscometry.
Data set [2] in a line: xn = mol fraction of the nth substance listed. To be noted: 100 kPa, Liquid, Falling or rolling sphere viscometry, x2 = 0.

Numbers after ± are expanded uncertainties.

Usually viscosity stands for the resistance of a fluid to flow. On to `CCCCCCn1cc[n+](C)c1.F[B-](F)(F)F` [1-hexyl-3-methylimidazolium tetrafluoroborate], for which the viscosity in data set [1] (293.15 K) is reported as 293 ± 20 mPa·s; in data set [1] (298.15 K), 216 ± 13 mPa·s; in data set [1] (303.15 K) it was 163 ± 9 mPa·s; in data set [1] (313.15 K) it was 96.7 ± 4.3 mPa·s; in data set [1] (323.15 K) it was 61.8 ± 2.5 mPa·s; in data set [1] (333.15 K), 41.9 ± 1.7 mPa·s. For the same compound, the viscosity in data set [1] (343.15 K) is given as 29.5 ± 1.2 mPa·s; in data set [1] (353.15 K), 21.7 ± 0.9 mPa·s.
With `CC#N` [acetonitrile], the viscosity in data set [1] (293.15 K) is 0.39 ± 0.02 mPa·s; in data set [1] (298.15 K), 0.37 ± 0.02 mPa·s; in data set [1] (303.15 K), 0.35 ± 0.02 mPa·s; in data set [1] (313.15 K), 0.33 ± 0.01 mPa·s; in data set [1] (323.15 K), 0.3 ± 0.01 mPa·s; in data set [1] (333.15 K), 0.28 ± 0.01 mPa·s. Further, the viscosity in data set [1] (343.15 K) is reported as 0.26 ± 0.01 mPa·s.
For the compound `CC#N` [acetonitrile] + CCCCCCn1cc[n+](C)c1.F[B-](F)(F)F, the viscosity in data set [2] (293.15 K) is reported as 0.39 ± 0.02 mPa·s; in data set [2] (298.15 K), 0.37 ± 0.02 mPa·s; in data set [2] (303.15 K) it was 0.35 ± 0.02 mPa·s; in data set [2] (313.15 K) it was 0.33 ± 0.01 mPa·s; in data set [2] (323.15 K), 0.3 ± 0.01 mPa·s; in data set [2] (333.15 K) it was 0.28 ± 0.01 mPa·s. Moreover, the viscosity in data set [2] (343.15 K) stood at 0.26 ± 0.01 mPa·s.
As for `C[S+](C)[O-]` [dimethyl sulfoxide], the viscosity is 2.21 ± 0.09 mPa·s in data set [1] (293.15 K); 2.01 ± 0.08 mPa·s in data set [1] (298.15 K); 1.84 ± 0.07 mPa·s in data set [1] (303.15 K); 1.56 ± 0.06 mPa·s in data set [1] (313.15 K); 1.34 ± 0.05 mPa·s in data set [1] (323.15 K); 1.17 ± 0.05 mPa·s in data set [1] (333.15 K). The viscosity in data set [1] (343.15 K) was 1.03 ± 0.04 mPa·s; in data set [1] (353.15 K), 0.92 ± 0.04 mPa·s.
As to `C[S+](C)[O-]` [dimethyl sulfoxide] + CCCCCCn1cc[n+](C)c1.F[B-](F)(F)F, the viscosity in data set [2] (293.15 K) turned out to be 2.21 ± 0.09 mPa·s; in data set [2] (298.15 K) it was 2.01 ± 0.08 mPa·s; in data set [2] (303.15 K), 1.84 ± 0.07 mPa·s; in data set [2] (313.15 K) it was 1.56 ± 0.06 mPa·s; in data set [2] (323.15 K), 1.34 ± 0.05 mPa·s; in data set [2] (333.15 K), 1.17 ± 0.05 mPa·s. Besides, the results for the viscosity in data set [2] (343.15 K) and in data set [2] (353.15 K) were 1.03 ± 0.04 mPa·s and 0.92 ± 0.04 mPa·s, respectively.

Source of the values: the NIST ThermoML archive (doi:10.1021/acs.jced.8b00684).
